The source made the active and inactive calls.
Experiments:
[1] = target: Eukaryotic translation initiation factor 4H (Homo sapiens, UniProt Q15056); assay: inhibitors of translation initiation factor eIF4H – SAR follow-up (AID 435011); assay type: functional
[2] = target: Polyadenylate-binding protein 1 (Homo sapiens, UniProt P11940); assay: PABP inhibition in translation initiation, SAR follow-up (AID 435018); assay type: functional
[3] = target: DNA dC->dU-editing enzyme APOBEC-3G (Homo sapiens, UniProt Q9HC16); assay: Dose Response confirmation of small molecule APOBEC3G DNA Deaminase Inhibitors via a fluorescence-based single-stranded DNA deaminase assay. [Related pubchem assays (depositor defined):AID493012, AID493028]; assay type: functional
DNA dC->dU-editing enzyme APOBEC-3G, sequence (Q9HC16 whole entry): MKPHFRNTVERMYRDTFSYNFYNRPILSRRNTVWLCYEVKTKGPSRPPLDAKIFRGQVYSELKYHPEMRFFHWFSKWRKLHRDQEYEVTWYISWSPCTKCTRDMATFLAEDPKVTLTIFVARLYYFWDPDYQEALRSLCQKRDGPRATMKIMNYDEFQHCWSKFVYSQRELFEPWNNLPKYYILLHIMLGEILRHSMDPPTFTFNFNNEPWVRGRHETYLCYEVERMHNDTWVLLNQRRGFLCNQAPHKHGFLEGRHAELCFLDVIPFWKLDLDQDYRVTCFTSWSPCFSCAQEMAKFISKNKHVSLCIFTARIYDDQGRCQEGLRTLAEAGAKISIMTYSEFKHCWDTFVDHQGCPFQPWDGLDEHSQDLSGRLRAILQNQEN

[4] = target: DNA dC->dU-editing enzyme APOBEC-3A (Homo sapiens, UniProt P31941); assay: A3A deaminase inhibition for selectivity – biochemical, dose response (AID 504722); assay type: functional
DNA dC->dU-editing enzyme APOBEC-3A, sequence (P31941 whole entry): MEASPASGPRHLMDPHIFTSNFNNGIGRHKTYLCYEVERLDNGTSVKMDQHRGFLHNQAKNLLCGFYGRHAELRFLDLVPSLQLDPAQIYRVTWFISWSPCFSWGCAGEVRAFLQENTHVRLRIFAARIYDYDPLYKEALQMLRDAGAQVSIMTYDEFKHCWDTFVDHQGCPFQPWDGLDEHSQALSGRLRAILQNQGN

[5] = target: Oxytocin receptor (Homo sapiens, UniProt P30559); assay: Fluorescence-based cell-based high throughput dose response assay for agonists of the Oxytocin Receptor (OXTR). [Related pubchem assays: 2435 (Primary screen (OXTR agonists in singlicate)), 434991 (Counterscreen (V1R agonists in triplicate)), 2482 (Summary (OXTR agonists)), 434963 (Confirmation screen (OXTR agonists in triplicate))]; assay type: functional
Oxytocin receptor, sequence (P30559 whole entry): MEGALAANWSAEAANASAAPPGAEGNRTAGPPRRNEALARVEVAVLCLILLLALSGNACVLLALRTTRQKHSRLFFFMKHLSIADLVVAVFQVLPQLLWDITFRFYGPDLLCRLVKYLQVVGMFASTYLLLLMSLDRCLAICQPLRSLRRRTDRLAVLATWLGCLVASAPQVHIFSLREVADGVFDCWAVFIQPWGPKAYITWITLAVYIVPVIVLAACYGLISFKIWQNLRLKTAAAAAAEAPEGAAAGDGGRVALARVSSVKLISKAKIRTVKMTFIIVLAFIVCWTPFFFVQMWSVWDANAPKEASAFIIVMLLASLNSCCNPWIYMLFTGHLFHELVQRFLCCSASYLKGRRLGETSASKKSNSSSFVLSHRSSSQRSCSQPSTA

[6] = target: Vasopressin V1a receptor (Homo sapiens, UniProt P37288); assay: Counterscreen for Oxytocin Receptor (OXTR) agonists: Fluorescence-based cell-based high throughput dose response assay to identify agonists of the vasopressin 1 receptor (V1R). [Related pubchem assays: 2435 (Primary screen (OXTR agonists in singlicate)), 434991 (Counterscreen (V1R agonists in triplicate)), 2482 (Summary (OXTR agonists)) …; assay type: functional
Vasopressin V1a receptor, sequence (P37288 whole entry): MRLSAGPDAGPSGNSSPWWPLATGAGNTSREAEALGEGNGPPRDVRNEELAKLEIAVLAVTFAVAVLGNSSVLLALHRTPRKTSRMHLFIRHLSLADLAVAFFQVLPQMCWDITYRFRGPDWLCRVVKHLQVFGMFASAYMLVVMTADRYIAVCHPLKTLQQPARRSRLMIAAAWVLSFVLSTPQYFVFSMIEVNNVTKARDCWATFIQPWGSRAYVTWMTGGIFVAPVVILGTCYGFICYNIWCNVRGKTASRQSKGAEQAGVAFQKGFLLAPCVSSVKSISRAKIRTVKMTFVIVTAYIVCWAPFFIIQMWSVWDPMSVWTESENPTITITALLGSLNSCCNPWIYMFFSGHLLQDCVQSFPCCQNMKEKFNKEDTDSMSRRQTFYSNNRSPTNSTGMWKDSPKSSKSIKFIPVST

[7] = target: Intestinal-type alkaline phosphatase (Homo sapiens, UniProt P09923); assay: Dose Response confirmation of uHTS hits from a small molecule inhibitors of human intestinal alkaline phosphatase via a luminescent assay. [Related pubchem assays (depositor defined):AID2544, AID2574]; assay type: functional
Intestinal-type alkaline phosphatase, sequence (P09923 whole entry): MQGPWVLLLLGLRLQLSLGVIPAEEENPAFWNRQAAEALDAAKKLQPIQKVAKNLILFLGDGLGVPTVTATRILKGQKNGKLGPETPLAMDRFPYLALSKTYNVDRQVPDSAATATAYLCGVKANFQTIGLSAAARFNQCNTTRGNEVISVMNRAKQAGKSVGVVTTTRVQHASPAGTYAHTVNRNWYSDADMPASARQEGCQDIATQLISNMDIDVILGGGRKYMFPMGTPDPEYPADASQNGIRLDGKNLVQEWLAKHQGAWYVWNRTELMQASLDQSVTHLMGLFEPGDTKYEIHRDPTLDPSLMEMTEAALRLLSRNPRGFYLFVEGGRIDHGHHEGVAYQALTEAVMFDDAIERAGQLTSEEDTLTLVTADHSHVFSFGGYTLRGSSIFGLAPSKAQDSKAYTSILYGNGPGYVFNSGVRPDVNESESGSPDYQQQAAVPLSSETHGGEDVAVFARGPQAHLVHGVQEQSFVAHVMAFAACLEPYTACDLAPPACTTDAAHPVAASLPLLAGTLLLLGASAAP

[8] = target: Glyceraldehyde-3-phosphate dehydrogenase (Homo sapiens, UniProt P04406)
Glyceraldehyde-3-phosphate dehydrogenase, sequence (P04406 whole entry, the tested form may be a part): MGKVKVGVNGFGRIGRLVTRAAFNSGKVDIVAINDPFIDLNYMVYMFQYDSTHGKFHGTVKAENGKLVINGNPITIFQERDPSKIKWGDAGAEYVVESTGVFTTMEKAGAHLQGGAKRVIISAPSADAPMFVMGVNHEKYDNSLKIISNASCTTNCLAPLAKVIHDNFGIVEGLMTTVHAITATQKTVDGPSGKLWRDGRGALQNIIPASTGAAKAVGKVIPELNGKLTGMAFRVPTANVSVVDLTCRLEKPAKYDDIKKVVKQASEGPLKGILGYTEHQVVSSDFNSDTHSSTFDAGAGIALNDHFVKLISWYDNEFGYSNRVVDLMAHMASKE

[9] = CCR5-tropic HIV-1 fusion blockers – cell-based, CCR5-tropic Env, dose response (AID 2279); assay type: functional
[10] = target: Phospholipase A2 (Homo sapiens, UniProt P04054); assay type: functional;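 also: confirmatory dose-response counterscreen on phospholipase A2, testing hits that came from an ultra-high-throughput screen for ATG4B inhibitors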
Phospholipase A2, sequence (P04054 whole entry): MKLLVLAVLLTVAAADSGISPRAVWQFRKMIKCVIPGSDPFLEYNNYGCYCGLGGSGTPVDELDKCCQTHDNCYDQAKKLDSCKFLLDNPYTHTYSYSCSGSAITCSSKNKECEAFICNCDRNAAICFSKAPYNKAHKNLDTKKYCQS

[11] = target: T1, High affinity choline transporter 1 (Homo sapiens, UniProt Q9GZV3); assay: human choline transporter blockers, potency – cell-based, 5-point CRC, membrane potential dye, dose response (AID 504840); assay type: functional
T1 sequence (Q9GZV3 whole entry): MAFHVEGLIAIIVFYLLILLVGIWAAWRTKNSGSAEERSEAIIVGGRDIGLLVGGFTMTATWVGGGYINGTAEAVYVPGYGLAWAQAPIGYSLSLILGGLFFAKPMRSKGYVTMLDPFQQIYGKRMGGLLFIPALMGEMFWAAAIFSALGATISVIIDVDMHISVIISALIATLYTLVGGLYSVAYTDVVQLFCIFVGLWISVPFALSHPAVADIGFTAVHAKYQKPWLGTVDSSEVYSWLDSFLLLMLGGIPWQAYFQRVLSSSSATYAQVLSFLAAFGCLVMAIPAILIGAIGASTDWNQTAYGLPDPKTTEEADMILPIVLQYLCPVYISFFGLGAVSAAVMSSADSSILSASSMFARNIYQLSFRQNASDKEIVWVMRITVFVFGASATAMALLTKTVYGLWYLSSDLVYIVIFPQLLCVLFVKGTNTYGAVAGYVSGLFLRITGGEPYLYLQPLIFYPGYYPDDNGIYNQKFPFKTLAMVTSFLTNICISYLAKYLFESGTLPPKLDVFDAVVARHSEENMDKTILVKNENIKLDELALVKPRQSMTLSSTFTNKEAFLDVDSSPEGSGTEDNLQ

[12] = target: FAD-linked sulfhydryl oxidase ALR (Homo sapiens, UniProt P55789); assay: ALR-catalysed DTT oxidation blockers – biochemical, H2O2 detection, luminescence, cherry-pick, dose response (AID 493248)
FAD-linked sulfhydryl oxidase ALR, sequence (P55789 whole entry): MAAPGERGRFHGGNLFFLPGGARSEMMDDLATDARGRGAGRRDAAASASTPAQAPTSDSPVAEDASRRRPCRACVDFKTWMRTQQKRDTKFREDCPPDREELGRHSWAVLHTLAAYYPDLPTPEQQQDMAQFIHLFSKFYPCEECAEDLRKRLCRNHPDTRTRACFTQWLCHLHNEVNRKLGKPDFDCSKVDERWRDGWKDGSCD

[13] = target: T2, Cysteine protease ATG4B (Homo sapiens, UniProt Q9Y4P1); assay type: functional;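 also: Fluorescence-based dose-response confirmation assay measuring inhibition of ATG4B activity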
T2 sequence (Q9Y4P1 whole entry): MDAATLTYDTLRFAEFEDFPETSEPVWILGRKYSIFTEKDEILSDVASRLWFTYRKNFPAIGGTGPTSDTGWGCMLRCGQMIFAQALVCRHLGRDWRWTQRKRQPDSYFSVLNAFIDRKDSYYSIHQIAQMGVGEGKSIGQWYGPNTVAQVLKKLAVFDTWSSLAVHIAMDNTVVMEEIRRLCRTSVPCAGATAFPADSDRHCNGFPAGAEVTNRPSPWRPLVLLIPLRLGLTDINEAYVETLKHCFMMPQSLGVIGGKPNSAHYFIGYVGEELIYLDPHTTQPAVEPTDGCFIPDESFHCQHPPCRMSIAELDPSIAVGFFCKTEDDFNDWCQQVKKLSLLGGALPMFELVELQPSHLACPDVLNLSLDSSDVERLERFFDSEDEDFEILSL

[14] = target: T3, Corticotropin-releasing factor receptor 2/Corticotropin-releasing factor-binding protein (Homo sapiens, UniProt P24387+Q13324); assay: activators of CRF receptor 2 with binding protein – uHTS hits, confirmation (AID 602473); assay type: functional; settings: read-out: EC50_Mean
T3 sequence (Q13324 whole entry): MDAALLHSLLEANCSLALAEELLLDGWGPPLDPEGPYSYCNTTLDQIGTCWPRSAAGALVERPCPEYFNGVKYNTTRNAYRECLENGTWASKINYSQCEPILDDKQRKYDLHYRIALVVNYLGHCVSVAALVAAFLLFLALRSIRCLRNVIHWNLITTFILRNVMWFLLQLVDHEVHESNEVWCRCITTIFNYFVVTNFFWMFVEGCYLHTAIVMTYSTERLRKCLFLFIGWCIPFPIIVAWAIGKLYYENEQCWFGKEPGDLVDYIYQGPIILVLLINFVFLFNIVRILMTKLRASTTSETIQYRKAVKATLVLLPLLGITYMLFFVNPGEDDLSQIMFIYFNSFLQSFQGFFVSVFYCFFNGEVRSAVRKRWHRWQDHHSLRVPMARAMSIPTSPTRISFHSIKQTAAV
T3 sequence (P24387 whole entry): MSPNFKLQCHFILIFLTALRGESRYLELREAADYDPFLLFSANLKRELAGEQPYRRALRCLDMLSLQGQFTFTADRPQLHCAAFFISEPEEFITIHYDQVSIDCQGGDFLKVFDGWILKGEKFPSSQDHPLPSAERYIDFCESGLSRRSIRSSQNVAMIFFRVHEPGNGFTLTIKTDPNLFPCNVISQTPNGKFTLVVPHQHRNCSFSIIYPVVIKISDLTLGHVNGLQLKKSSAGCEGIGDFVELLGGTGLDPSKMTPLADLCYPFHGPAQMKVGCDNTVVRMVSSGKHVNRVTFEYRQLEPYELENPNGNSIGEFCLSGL

[15] = target: T4, Sentrin-specific protease 1 (Homo sapiens, UniProt Q9P0U3); assay: Dose response confirmation of small molecule inhibitors of the catalytic domain of the SUMO protease, SENP1 in a FRET assay.; assay type: functional; settings: read-out: IC50_Mean
T4 sequence (Q9P0U3 whole entry): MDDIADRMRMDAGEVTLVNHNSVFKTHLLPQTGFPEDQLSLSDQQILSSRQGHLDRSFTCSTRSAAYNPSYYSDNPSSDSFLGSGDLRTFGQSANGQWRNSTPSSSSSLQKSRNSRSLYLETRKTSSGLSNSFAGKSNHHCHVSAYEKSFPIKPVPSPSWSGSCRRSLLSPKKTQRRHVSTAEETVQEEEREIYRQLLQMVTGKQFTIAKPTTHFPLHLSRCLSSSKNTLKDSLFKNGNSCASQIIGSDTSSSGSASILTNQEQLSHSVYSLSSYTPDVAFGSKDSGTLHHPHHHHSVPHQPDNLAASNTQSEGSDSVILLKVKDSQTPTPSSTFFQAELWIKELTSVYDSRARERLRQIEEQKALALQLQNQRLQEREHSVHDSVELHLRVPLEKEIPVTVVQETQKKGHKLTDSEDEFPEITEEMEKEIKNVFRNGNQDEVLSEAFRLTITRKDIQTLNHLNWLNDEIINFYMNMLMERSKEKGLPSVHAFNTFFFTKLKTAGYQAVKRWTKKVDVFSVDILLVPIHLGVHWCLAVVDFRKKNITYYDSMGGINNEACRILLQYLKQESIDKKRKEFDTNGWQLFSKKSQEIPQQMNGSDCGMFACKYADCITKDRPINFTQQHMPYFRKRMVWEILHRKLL

[16] = target: T4, Sentrin-specific protease 1; assay: SENP1 catalytic domain blockers, concentration series – biochemical, kinetic FRET, dose response (AID 651697); assay type: functional; settings: read-out: IC50_Mean
[17] = target: T5, Eukaryotic translation initiation factor 2-alpha kinase 3 (Homo sapiens, UniProt Q9NZJ5); assay: Counterscreen assay for PERK inhibitors: Dose response cell-based high throughput screening assay to measure inhibition of PERK at 6 hours. [Related pubchem assays: 1522, 1416 ]; assay type: functional
T5 sequence (Q9NZJ5 whole entry): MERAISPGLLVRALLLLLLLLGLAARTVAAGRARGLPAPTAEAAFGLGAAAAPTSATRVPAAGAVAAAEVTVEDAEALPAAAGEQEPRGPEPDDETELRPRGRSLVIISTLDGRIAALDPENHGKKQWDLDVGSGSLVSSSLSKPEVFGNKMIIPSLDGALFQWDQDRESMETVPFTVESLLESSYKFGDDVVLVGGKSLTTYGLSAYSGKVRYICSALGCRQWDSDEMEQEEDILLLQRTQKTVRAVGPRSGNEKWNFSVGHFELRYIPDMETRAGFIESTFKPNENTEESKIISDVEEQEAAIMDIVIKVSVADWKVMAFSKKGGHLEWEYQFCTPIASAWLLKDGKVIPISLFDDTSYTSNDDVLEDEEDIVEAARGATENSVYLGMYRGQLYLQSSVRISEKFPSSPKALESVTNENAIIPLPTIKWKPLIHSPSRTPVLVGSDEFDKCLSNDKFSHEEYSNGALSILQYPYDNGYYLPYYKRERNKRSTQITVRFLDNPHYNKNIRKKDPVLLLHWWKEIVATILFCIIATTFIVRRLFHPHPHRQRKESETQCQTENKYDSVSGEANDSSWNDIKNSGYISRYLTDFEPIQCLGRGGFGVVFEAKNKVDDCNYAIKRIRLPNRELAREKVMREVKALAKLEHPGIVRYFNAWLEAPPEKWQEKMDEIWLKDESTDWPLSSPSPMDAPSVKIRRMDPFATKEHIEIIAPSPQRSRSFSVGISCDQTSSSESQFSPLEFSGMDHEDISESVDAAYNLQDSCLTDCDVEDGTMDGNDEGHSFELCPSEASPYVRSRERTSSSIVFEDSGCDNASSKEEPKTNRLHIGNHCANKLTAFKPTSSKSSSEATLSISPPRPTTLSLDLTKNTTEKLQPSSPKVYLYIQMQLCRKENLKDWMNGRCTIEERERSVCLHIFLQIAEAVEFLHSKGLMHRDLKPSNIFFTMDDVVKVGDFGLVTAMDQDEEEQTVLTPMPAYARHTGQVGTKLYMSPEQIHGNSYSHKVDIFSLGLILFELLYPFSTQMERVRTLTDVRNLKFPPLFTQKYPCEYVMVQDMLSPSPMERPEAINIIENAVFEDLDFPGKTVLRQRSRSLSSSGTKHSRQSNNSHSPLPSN

[18] = target: T5, Eukaryotic translation initiation factor 2-alpha kinase 3; assay: Dose response cell-based high-throughput screening assay to measure PERK inhibition. [Related pubchem assays: 1416 ]; assay type: functional
[19] = cells
[20] = system: Vero; assay: cells; assay type: functional, cell-based; settings: Chlorocebus sabaeus
[21] = viability of uninfected HEp-2 cells – cell-based, HTS, cytotoxicity control for RSV inhibitor project, dose response (AID 2410); assay type: functional; settings: human respiratory syncytial virus
[22] = target: Lysosomal acid glucosylceramidase (Homo sapiens, UniProt P04062); assay: Dose response cell-based high throughput screening assay to identify enhancers of beta-glucosidase activity. [Related pubchem assays: 784 ]; assay type: functional
Lysosomal acid glucosylceramidase, sequence (P04062 whole entry): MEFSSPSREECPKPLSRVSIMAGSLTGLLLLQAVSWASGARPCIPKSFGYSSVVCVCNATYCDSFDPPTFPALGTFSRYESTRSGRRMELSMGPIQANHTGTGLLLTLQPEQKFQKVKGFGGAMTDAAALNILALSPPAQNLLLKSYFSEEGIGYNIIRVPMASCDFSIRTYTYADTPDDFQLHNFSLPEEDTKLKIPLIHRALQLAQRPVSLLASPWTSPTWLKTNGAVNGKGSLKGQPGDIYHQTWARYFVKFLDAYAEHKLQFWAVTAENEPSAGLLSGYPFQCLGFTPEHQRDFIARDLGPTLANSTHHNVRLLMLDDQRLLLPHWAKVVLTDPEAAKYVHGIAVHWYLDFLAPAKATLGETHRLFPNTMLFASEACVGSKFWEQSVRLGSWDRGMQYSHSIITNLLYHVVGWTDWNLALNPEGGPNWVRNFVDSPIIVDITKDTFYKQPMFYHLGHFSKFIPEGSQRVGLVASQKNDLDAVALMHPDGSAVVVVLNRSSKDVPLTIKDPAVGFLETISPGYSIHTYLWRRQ

[23] = system: Streptococcus; assay: Luminescence Microorganism-Based Dose Response Follow up to Identify Compounds Cytotoxic to Streptococcus. [Related pubchem assays: 1677 (Project Summary), 1915, 1914, 1902 (Retest at Dose), 1900 (Counter Screen), 1662 (Primary HTS)]; assay type: functional, organism-based
[24] = target: Scavenger receptor class B member 1 (Mus musculus, UniProt Q61009); assay: mouse SR-BI DiI-HDL uptake blockers – ldlA[mSR-BI] cells, fluorescence, cherry pick, dose response (AID 493194); assay type: functional, cell-based;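 also: cellular uptake of fluorescent DiI-labeled HDL measured as cell fluorescence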
Scavenger receptor class B member 1, sequence (Q61009 whole entry): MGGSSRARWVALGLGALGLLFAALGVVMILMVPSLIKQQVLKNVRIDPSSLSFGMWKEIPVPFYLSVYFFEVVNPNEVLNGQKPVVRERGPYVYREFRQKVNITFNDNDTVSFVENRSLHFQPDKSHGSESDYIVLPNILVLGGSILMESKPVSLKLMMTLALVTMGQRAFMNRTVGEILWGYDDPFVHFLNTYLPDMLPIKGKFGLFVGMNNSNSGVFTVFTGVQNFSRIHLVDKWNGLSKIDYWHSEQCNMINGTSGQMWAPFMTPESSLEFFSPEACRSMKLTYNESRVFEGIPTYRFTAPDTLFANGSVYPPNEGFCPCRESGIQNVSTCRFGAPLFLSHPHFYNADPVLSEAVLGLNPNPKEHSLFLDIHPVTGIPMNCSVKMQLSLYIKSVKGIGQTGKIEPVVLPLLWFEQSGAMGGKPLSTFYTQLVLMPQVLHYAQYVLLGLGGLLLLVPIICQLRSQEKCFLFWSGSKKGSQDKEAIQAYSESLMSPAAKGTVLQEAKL

Polyadenylate-binding protein 1, sequence (P11940 whole entry): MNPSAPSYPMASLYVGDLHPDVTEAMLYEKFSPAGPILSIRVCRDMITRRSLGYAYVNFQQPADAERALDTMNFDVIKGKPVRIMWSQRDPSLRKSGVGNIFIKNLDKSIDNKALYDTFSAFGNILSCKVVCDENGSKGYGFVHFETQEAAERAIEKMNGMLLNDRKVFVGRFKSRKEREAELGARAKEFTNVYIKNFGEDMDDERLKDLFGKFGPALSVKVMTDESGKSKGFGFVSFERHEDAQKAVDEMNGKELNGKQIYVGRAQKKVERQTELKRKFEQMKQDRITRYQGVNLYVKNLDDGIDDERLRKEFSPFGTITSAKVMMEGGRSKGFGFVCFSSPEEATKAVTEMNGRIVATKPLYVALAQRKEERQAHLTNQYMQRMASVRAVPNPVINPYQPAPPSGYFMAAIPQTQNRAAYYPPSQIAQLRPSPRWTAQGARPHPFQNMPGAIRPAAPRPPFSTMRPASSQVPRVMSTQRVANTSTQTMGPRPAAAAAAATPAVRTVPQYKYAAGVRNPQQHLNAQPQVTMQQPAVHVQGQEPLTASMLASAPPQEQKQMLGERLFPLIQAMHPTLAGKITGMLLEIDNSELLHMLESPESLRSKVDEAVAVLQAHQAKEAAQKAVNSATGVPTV

Cc1cccc(NC(=O)CSc2ccc(-c3ccco3)nn2)c1
IC50 [1]: > 100 µM (inactive)
IC50 [2]: > 100 µM (inactive)

Sc1nnc(COc2ccccc2)n1/N=C/c1ccncc1
IC50 [3]: 3.12 µM (active)
IC50 [4]: > 100 µM (inactive)

COC(C(=O)Nc1ccc(S(=O)(=O)Nc2ccc(F)cc2)cc1)c1ccccc1 (stereo unspecified)
EC50 [5]: > 29.9 µM (not active)
EC50 [6]: > 29.9 µM (not active)

N#Cc1cc(Oc2ccccc2)c(-n2nnc3ccccc32)cc1C#N
IC50 [7]: > 100 µM (inactive)

NS(=O)(=O)c1ccc2[nH]c3c(c2c1)CCCC3
IC50 [8]: > 100 µM (not active)

COc1ccc(/C=C2/SC(=O)N(CCCCCC(=O)Nc3ccccc3C(=O)O)C2=S)cc1
IC50 [9]: > 50 µM (active)
IC50 [10]: 5.25 µM (active)
IC50 [11]: 13.8 µM (active)
AC50 [12]: 3.05 µM (active)
IC50 [13]: 14.5 µM (active)

Cc1ccc2c(c1)nnc1nnc(SCC(=O)O)n12
EC50 [14]: > 53 µM (inactive)
IC50 [15]: 10.9 µM (active)
IC50 [16]: 9.05 µM (active)
IC50 [7]: > 100 µM (inactive)

COc1cc([N+](=O)[O-])ccc1NC(=O)COC(=O)c1ccc2c(c1)NC(=O)CS2
IC50 [1]: 5.18 µM (active)
IC50 [2]: > 100 µM (inactive)

Cn1cc(NC(=O)Nc2ccc(C(F)(F)F)cc2)c(C(F)(F)F)n1
EC50 [17]: > 55.7 µM (not active)
EC50 [18]: > 55.7 µM (not active)

Cc1ccc(CSCC(=O)Nc2ccccc2C(=O)O)cc1
IC50 [19]: 9.39 µM (active)
IC50 [20]: 12.2 µM (active)
CC50 [21]: 21.9 µM (active)

COCc1cc(C)nc(NC2CCCCC2)c1C#N
EC50 [22]: > 50 µM (not active)

CC(Sc1ccc(Cl)cc1)C(=O)Nc1ccc(S(=O)(=O)N2CCOCC2)cc1 (stereo unspecified)
EC50 [5]: > 29.9 µM (not active)
EC50 [6]: > 29.9 µM (not active)

O=C(c1ccccc1C(F)(F)F)n1c2ccccc2c2ccccc21
EC50 [23]: > 500 µM (not active)

Cc1ccc(NC(=O)c2ccc3c(c2)CCN3S(C)(=O)=O)cc1C
AC50 [24]: 23.8 µM (active)

Cc1cc(C)c(NC2=NS(=O)(=O)c3ccccc32)c(C)c1
EC50 [17]: > 55.7 µM (not active)
EC50 [18]: > 55.7 µM (not active)

Reference: ChEMBL document CHEMBL1201862, “PubChem BioAssay data set” (2004)
